Source: EP0549006A2, “Ammonium and phosphonium salts and their use as biocides” (FMC CORPORATION (UK) LIMITED, priority 1991, dated 1993)

Key:
[1] = Solubility of the isolated product (water, alcohol); assay type: physicochemical
Pseudomonas fluorescens = assay: Bacterial minimal inhibiting concentration (MIC) in liquid culture, turbidity evaluation; assay type: cell-based; settings: strain F: Pseudomonas fluorescens; Caso Peptone Bouillon, 24 hours at 30 °C; tested at 10, 30, 60 and 100 mg/l
Serratia marcescens = assay: as above; assay type: cell-based; settings: strain B: Serratia marcescens; Caso Peptone Bouillon, 24 hours at 30 °C; tested at 10, 30, 60 and 100 mg/l
bacterial mixed culture = assay type: cell-based; settings: 24 hours at 30 °C in Tyrode solution, growth on Caso Peptone plates; for Effect after 24 h 10: 10 mg/l; for Effect after 24 h 30: 30 mg/l; for Effect after 24 h 60: 60 mg/l
Enterobacter aerogenes = assay: Bacterial minimal inhibiting concentration (MIC) in liquid culture, turbidity evaluation; assay type: cell-based; settings: strain C: Enterobacter aerogenes, Caso Peptone Bouillon, 24 hours at 30 °C, tested at 10, 30, 60 and 100 mg/l
Proteus vulgaris = assay: as above; assay type: cell-based; settings: strain E: Proteus vulgaris; Caso Peptone Bouillon, 24 hours at 30 °C; tested at 10, 30, 60 and 100 mg/l
Bacillus subtilis = assay: as above; assay type: cell-based; settings: strain A: Bacillus subtilis; Caso Peptone Bouillon, 24 hours at 30 °C; tested at 10, 30, 60 and 100 mg/l
Alcaligenes dentrificans = assay: as above; assay type: cell-based; settings: strain D: Alcaligenes dentrificans; Caso Peptone Bouillon, 24 hours at 30 °C; tested at 10, 30, 60 and 100 mg/l

| Compound | solubility in water [1] | MIC (Pseudomonas fluorescens) | MIC (Serratia marcescens) | Effect after 24 h 10 (bacterial mixed culture) | Effect after 24 h 30 (bacterial mixed culture) | Effect after 24 h 60 (bacterial mixed culture) | minimal inhibiting concentration C (Enterobacter aerogenes) | MIC (Proteus vulgaris) | MIC (Bacillus subtilis) | MIC (Alcaligenes dentrificans) | solubility in alcohol ([1]; alcohol) | minimal inhibiting concentration F (Pseudomonas fluorescens) | minimal inhibiting concentration B (Serratia marcescens) | Effect after 24 h 100 mg/l (bacterial mixed culture) | minimal inhibiting concentration E (Proteus vulgaris) | minimal inhibiting concentration A (Bacillus subtilis) | minimal inhibiting concentration D (Alcaligenes dentrificans) | MIC (Enterobacter aerogenes; Klebsiella aerogenes, 24 h) | solubility ([1]; in water) |
| --- | --- | --- | --- | --- | --- | --- | --- | --- | --- | --- | --- | --- | --- | --- | --- | --- | --- | --- | --- |
| CCCCCCCCCCCCCC[P+](CCCC)(CCCC)CCCC [Example 2, [(n-C4H9)3P n-C14H29]^+HSO4-] | optionally miscible with water | 30 µg/mL | 30 µg/mL | - | - | - | 10 µg/mL | 10 µg/mL | 10 µg/mL | 10 µg/mL |  |  |  |  |  |  |  |  |  |
| CCCCCCCCCCCCCC[P+](CCCC)(CCCC)CCCC [Example 3, [(n-C4H9)3P n-C14H29]^+NO3^-] | difficultly soluble in water |  |  | (-) (1-10 colonies, bacteria killed for the most part) | (-) (1-10 colonies, bacteria killed for the most part) | - | 10 µg/mL |  |  |  | readily soluble in alcohol | 30 µg/mL | 30 µg/mL | - | 10 µg/mL | 10 µg/mL | 10 µg/mL |  |  |
| CCCCCCCCCCCCCC[N+](C)(C)Cc1ccccc1 [Example 5, [(CH3)2N(CH2C6H5)n-C14H29]^+[S2P(O^iC3H7)2]^-] | difficultly soluble in water | < 100 µg/mL | < 100 µg/mL |  | (-) (1-10 colonies, bacteria killed for the most part) | - |  | < 100 µg/mL | < 100 µg/mL | < 100 µg/mL |  |  |  | - |  |  |  | < 100 µg/mL |  |
| CCCCCCCCCCCCCC[P+](CCCC)(CCCC)CCCC [Example 6, ([n-C4H9)3P n-C14H29]^+[B(C6H5)4]^-] |  |  |  |  |  |  |  |  |  |  |  |  |  |  |  |  |  |  | ≤ 20 µg/mL |
| CCCCCCCCCCCCCC[P+](CCCC)(CCCC)CCCC [Example 7, [(n-C4H9)3P n-C14H29]^+[lO4]^-] | difficultly soluble in water |  |  | (-) (1-10 colonies, bacteria killed for the most part) | - | - | 30 µg/mL |  |  |  |  | 30 µg/mL | 30 µg/mL | - | 10 µg/mL | 10 µg/mL | 10 µg/mL |  |  |
| [(CH3)2N(CH2C6H5) n-C14H29]3^+[Fe(CN)6]^3- [Example 4] |  |  |  |  |  |  | <100 µg/mL |  |  |  |  | <100 µg/mL | <100 µg/mL |  | <100 µg/mL | <100 µg/mL | <100 µg/mL |  |  |
| [(n-C4H9)3P n-C14H29]^+(ICIBr]^- [Example 9] |  |  |  | - | - | - | 30 µg/mL |  |  |  |  | 30 µg/mL | 30 µg/mL |  | 10 µg/mL | 10 µg/mL | 10 µg/mL |  |  |
| [(n-C4H9)3P n-C, 4H29]^+[ICI2]^- [Example 8] |  |  |  | - | - | - | 30 µg/mL |  |  |  |  | 30 µg/mL | 30 µg/mL |  | 10 µg/mL | 10 µg/mL | 10 µg/mL |  |  |
| [(n-C4H9)3P n-G14H29]^+SCN^- [Example 1] |  |  |  | - | - | - | 10 µg/mL |  |  |  |  | 30 µg/mL | 30 µg/mL | - | 10 µg/mL | 10 µg/mL | 10 µg/mL |  |  |
